Assay results from PMC5749112 (The Journal of General Physiology, 2018).
“Also recorded” adds a separate entry of the source. Like-named read-outs stand apart in the source and are kept apart here. One block for each compound: values may come before it.

Legend:
[1] = target: T1, PnuTSw (Shewanella woodyi, UniProt B1KPL9); format: binding; conditions: for Dissociation constant Kd: WT PnuTSw in DDM, pH 8.0
T1 sequence (B1KPL9 1-212): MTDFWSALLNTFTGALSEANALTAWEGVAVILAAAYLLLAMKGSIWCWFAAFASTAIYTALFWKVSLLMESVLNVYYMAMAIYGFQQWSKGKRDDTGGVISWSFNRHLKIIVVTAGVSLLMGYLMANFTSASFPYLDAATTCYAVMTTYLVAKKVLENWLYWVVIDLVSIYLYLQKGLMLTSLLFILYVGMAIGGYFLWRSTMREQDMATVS

[2] = target: T2, PnuTSw reconstituted in proteoliposomes (Shewanella woodyi, UniProt B1KPL9); format: biochemical; conditions: proteoliposomes loaded with 1 mM unlabeled ligand
T2 sequence (B1KPL9 1-212): T1 sequence (B1KPL9 1-212)

[3] = target: T2, PnuTSw reconstituted in proteoliposomes; format: biochemical; conditions: 1 mM unlabeled analogue in outside buffer, 500 nM [3H]thiamine
[4] = target: T3, PnuTSw mutant Y159F (Shewanella woodyi, UniProt B1KPL9, W159F); conditions: ITC, 25°C
[5] = target: T4, PnuTSw mutant Y77A (Shewanella woodyi, UniProt B1KPL9, Y77A); conditions: ITC, 25°C
[6] = target: T5, PnuTSw mutant Y162F (Shewanella woodyi, UniProt B1KPL9, W162F); conditions: ITC, 25°C
[7] = target: T6, PnuTSw mutant W199A (Shewanella woodyi, UniProt B1KPL9, W199A); assay: biochemical
[8] = target: T7, PnuTSw mutant W88A (Shewanella woodyi, UniProt B1KPL9, W88A); conditions: ITC, 25°C
[9] = target: T7, PnuTSw mutant W88A; conditions: proteoliposomes
[10] = target: T7, PnuTSw mutant W88A; assay: biochemical
[11] = target: T8, PnuTSw mutant Y188A (Shewanella woodyi, UniProt B1KPL9, Y188A); assay: biochemical
[12] = target: T3, PnuTSw mutant Y159F; assay: biochemical
[13] = target: T5, PnuTSw mutant Y162F; assay: biochemical
[14] = target: T4, PnuTSw mutant Y77A; assay: biochemical
[15] = target: PnuTSw mutant D166A; conditions: ITC, 25°C
[16] = target: T8, PnuTSw mutant Y188A; conditions: ITC, 25°C
[17] = target: T6, PnuTSw mutant W199A; conditions: ITC, 25°C

T7 sequence (B1KPL9 1-212 W88A): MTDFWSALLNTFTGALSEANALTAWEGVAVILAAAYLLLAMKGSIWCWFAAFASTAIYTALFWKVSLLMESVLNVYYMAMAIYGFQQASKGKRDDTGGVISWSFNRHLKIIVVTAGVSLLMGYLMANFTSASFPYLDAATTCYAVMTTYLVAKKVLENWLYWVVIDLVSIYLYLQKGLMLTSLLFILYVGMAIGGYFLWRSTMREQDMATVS
T3 sequence (B1KPL9 1-212 W159F): as the sequence (B1KPL9 1-212 W88A) above, with A88W, W159F counted along it
T5 sequence (B1KPL9 1-212 W162F): as the sequence (B1KPL9 1-212 W88A) above, with A88W, W162F counted along it
T8 sequence (B1KPL9 1-212 Y188A): as the sequence (B1KPL9 1-212 W88A) above, with A88W, Y188A counted along it
T4 sequence (B1KPL9 1-212 Y77A): as the sequence (B1KPL9 1-212 W88A) above, with Y77A, A88W counted along it
T6 sequence (B1KPL9 1-212 W199A): as the sequence (B1KPL9 1-212 W88A) above, with A88W, W199A counted along it

Inhibition of [3H]thiamine uptake [3]: did not inhibit transport
SMILES: Cc1ncc(C[n+]2csc(CCOP(=O)(O)O)c2C)c(N)n1 [TMP, thiamine monophosphate]
Dissociation constant Kd ([1]; ITC, 25°C): binding could not be detected; also recorded: neither TMP nor TPP could bind; also recorded: No binding | Counter flow of [3H]thiamine (transported substrate or not) [2]: did not trigger accumulation of the label

Inhibition of [3H]thiamine uptake [3]: did not inhibit transport
SMILES: Cc1ncc(C[n+]2csc(CCO[P@](=O)(O)OP(=O)(O)O)c2C)c(N)n1 [TPP, thiamine pyrophosphate]
Dissociation constant Kd ([1]; ITC, 25°C): binding could not be detected; also recorded: neither TMP nor TPP could bind; also recorded: No binding | Counter flow of [3H]thiamine (transported substrate or not) [2]: did not trigger accumulation of the label

SMILES: Cc1ncc(C[n+]2csc(CCO)c2C)c(N)n1 [Thiamine, thiamine]
Dissociation constant Kd [4]: neither of the mutations affected thiamine binding | Dissociation constant Kd [5]: did not affect the binding of thiamine | Dissociation constant Kd [6]: neither of the mutations affected thiamine binding | Kd [7]: 12 ± 1 µM | Kd [1]: 12 ± 5 µM | ΔH ([1]; ITC, 25°C, WT PnuTSw): -6.45 ± 5.26 kcal/mol | ΔS ([1]; ITC, 25°C, WT PnuTSw): 5 ± 71 J/mol/K | Dissociation constant Kd [8]: did not affect the binding of thiamine | Thiamine transport activity of mutant [9]: unable to transport thiamine | Kd [10]: 13 ± 2 µM | Kd [11]: 21 ± 2 µM | Kd [12]: 23 ± 2 µM | Kd [13]: 26 ± 3 µM | Kd [14]: 17 ± 2 µM | Dissociation constant Kd [15]: could not be detected | Dissociation constant Kd ([15]; listed as thiamine): No binding | Dissociation constant Kd [16]: did not affect the binding of thiamine | Dissociation constant Kd [17]: did not affect the binding of thiamine
